Read-outs that look alike come from different tables or passages of the source.
Key:
[1] = target: T1, BaF3 NPM-ALK C1156Y (Homo sapiens, UniProt Q9UM73, C1156Y, cells depend on it); assay: Tritiated thymidine uptake cell proliferation assay, BaF3 NPM-ALK C1156Y; format: cell-based, murine; conditions: cell line BaF3 NPM-ALK C1156Y; read-out: IC50 of cellular proliferation, BaF3 NPM-ALK C1156Y
T1 construct: fused on or other part: P06748 (Nucleophosmin)
Experimental: (§1) Method: Tritiated Thymidine Uptake Cell Proliferation Assay
(§2) The following procedure was used with parent untransformed BaF3 cells, BaF3 cells transformed with the oncogenic fusion protein NPM/ALK, NPM/ALK positive SUDHL-1 cells, NPM/ALK positive SUPM2, ALK-negative HL60 cells, NPM/ALK positive KARPAS-299 cells. The parent untransformed BaF3 cells or Alk-negative HL60 cells are used as controls. Cells were seeded in U-bottomed 96-well plates at 10000 cells/well in a volume of 100 μl in supplemented medium. In the case of the parent untransformed BaF3 cells, the medium was supplemented with IL-3. Serial dilutions of inhibitors were added to the appropriate wells and volumes adjusted to 200 μl. Controls were treated with the equivalent volume of vehicle, DMSO, alone. Plates were incubated at 37° C. for 72 h. 3[H]-thymidine (1 μCi/well) was added for the last 16 h of incubation. Cells were harvested on to paper filters and 3[H]-thymidine incorporation was measured using a scintillation counter (1430 MicroBeta, Wallac, Turku, Finland). The 50% inhibitory concentration (IC50) was defined as the concentration of inhibitor, expressed in nanomolar units, that gave a 50% decrease in 3[H]-thymidine uptake compared with controls.
(§3) In Table 4 are reported the IC50 of cellular proliferation assays of example 3 versus ALK positive, mutated and negative cell lines.

[2] = target: T2, BaF3 cell line transfected with the oncogenic fusion protein NPM-ALK and expressing the mutation L1196M (Homo sapiens, UniProt Q9UM73, L1196M, cells depend on it); assay: Tritiated thymidine uptake cell proliferation assay, BaF3 NPM-ALK L1196M; format: cell-based, murine
T2 construct: fused on or other part: P06748 (Nucleophosmin)
T2 sequence (Q9UM73 whole entry L1196M, the tested form may be a part): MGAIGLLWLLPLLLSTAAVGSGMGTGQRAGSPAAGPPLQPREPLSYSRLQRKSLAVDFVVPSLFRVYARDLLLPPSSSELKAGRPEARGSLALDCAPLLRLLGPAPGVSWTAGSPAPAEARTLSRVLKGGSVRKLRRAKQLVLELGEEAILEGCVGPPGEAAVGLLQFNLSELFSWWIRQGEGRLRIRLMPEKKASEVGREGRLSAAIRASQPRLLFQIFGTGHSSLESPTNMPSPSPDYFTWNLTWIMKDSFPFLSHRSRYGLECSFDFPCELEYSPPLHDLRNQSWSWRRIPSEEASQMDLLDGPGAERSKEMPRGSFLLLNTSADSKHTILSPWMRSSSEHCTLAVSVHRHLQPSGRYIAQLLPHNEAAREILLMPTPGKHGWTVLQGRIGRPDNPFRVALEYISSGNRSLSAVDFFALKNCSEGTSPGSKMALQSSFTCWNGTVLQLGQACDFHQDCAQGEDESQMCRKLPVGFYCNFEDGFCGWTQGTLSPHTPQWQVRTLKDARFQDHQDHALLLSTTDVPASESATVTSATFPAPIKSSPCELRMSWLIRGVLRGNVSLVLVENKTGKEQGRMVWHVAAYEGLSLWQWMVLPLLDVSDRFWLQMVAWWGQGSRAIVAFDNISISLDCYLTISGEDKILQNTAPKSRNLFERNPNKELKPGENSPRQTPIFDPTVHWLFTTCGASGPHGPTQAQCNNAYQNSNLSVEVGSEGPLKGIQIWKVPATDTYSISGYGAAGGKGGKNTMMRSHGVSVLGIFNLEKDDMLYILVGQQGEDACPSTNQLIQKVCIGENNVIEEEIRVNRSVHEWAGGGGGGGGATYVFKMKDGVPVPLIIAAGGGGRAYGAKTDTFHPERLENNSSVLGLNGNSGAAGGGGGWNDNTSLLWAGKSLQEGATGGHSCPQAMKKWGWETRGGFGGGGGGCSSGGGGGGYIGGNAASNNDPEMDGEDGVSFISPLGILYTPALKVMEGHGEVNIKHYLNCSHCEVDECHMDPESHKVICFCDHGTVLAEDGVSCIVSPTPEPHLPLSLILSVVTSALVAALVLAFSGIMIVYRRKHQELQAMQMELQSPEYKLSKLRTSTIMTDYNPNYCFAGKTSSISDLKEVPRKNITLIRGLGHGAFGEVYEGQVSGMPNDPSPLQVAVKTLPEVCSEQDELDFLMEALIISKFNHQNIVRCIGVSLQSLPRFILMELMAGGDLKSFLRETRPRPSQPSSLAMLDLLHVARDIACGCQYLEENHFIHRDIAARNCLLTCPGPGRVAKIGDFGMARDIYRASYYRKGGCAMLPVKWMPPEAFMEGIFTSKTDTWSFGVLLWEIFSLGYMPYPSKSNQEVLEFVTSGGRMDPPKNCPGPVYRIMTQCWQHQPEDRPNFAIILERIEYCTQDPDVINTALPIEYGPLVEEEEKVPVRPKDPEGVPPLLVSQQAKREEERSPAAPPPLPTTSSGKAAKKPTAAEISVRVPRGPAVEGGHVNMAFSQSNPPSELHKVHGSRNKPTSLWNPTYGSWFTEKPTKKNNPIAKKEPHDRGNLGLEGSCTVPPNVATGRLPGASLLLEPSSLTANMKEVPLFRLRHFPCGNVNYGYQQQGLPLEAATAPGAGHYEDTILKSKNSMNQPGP
Experimental: as §1, §2
In Table 2 are listed results for selected examples of compounds of the invention, reported as percentage of inhibition of cell proliferation at 200 nM, obtained from cellular assays in BaF3 cell line transfected with the oncogenic fusion protein NPM-ALK and expressing the mutation L1196M.
In Table 3 are listed averaged IC50 values of cell proliferation inhibition for selected examples of compounds of the present invention, obtained from cellular assays in BaF3 cell line transfected with the oncogenic fusion protein NPM-ALK and expressing the mutation L1196M. The letter “A” designates an IC50 value between 1 nM and 50 nM, the letter “B” designates an IC50 value between 50 nM and 100 nM, the letter “C” designates an IC50 value between 100 and 500 nM.

[3] = target: T3, FYN (Homo sapiens, UniProt P06241); assay: Radiometric protein kinase assay (33PanQuinase Activity Assay), FYN; format: biochemical; conditions: ATP 0.3 μM
T3 construct: either as full-length or enzymatically active fragments; purchased ProQinase GmbH (Freiburg, Germany)
T3 sequence (P06241 whole entry, the tested form may be a part): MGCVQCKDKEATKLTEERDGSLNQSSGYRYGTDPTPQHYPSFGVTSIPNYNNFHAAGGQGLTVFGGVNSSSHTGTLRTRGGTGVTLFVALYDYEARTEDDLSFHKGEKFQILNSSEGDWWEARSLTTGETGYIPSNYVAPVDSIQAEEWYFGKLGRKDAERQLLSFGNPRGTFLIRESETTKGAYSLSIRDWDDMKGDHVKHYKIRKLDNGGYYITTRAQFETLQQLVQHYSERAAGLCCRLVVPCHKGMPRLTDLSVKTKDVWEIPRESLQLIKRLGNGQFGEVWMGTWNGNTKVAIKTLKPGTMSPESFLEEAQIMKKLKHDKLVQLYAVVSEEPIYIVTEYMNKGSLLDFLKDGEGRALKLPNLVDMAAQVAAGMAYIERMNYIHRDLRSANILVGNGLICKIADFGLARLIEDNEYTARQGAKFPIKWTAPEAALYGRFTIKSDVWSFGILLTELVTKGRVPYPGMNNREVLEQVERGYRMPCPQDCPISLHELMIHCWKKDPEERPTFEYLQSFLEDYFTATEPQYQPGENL
Experimental: (§4) A proprietary radiometric protein kinase assay (33PanQuinase® Activity Assay) developed by ProQuinase GmbH (Freiburg, Germany) was used for measuring the kinase activity of selected protein kinases. All assays were performed in FlashPlates™ wells 96 Perkin Elmer (Boston, Mass., USA) in a reaction volume of 50 μl. The reaction mixture was obtained in 4 steps in the following order: • 1. 10 μl of a solution of non-radioactive ATP in water; • 2. 25 μl of assay buffer/[γ-^33P]-ATP mixture • 3. 5 μl of test sample in 10% DMSO • 4. 10 μl of enzyme/substrate mixture
(§5) All protein kinases provided by ProQinase were expressed in Sf9 insect cells or in E. coli as recombinant GST-fusion proteins or His-tagged proteins, either as full-length or enzymatically active fragments. […] Kinases from external vendors (CAR=Carna Biosciences Inc.; INV=Life Technologies (Invitrogen Corporation); MIL=Merck-Millipore (Millipore Corporation), were expressed, purified and quality-controlled by virtue of the vendors readings.
(§6) A stock solution of compound of formula (I) was diluted to 5×10-04M/100% DMSO. […] Incorporation of 33Pi (counting of “cpm”) was determined with a microplate scintillation counter (Microbeta, Wallac). […]
(§7) Based on each 10 corresponding residual activities, IC50 values were calculated using Prism 5.04 for Windows (Graphpad, San Diego, Calif.). […]

[4] = target: T4, BaF3 NPM-ALK WT (Homo sapiens, UniProt Q9UM73); assay: Tritiated thymidine uptake cell proliferation assay, BaF3 NPM-ALK WT; format: cell-based, murine; conditions: cell line BaF3 NPM-ALK WT; read-out: IC50 of cellular proliferation, BaF3 NPM-ALK WT
T4 construct: fused on or other part: P06748 (Nucleophosmin)
T4 sequence (Q9UM73 whole entry, change not shown, the tested form may be a part): as the sequence (Q9UM73 whole entry L1196M, the tested form may be a part) above, with M1196L counted along it
Experimental: as §1, §2, §3

[5] = target: T5, ALK F1174L (GST-His-tag) (Homo sapiens, UniProt Q9UM73, F1174L); assay: Radiometric protein kinase assay (33PanQuinase Activity Assay), ALK F1174L; format: biochemical; conditions: ATP 0.3 μM
T5 construct: either as full-length or enzymatically active fragments; purchased ProQinase GmbH (Freiburg, Germany)
T5 sequence (Q9UM73 19-1620 F1174L): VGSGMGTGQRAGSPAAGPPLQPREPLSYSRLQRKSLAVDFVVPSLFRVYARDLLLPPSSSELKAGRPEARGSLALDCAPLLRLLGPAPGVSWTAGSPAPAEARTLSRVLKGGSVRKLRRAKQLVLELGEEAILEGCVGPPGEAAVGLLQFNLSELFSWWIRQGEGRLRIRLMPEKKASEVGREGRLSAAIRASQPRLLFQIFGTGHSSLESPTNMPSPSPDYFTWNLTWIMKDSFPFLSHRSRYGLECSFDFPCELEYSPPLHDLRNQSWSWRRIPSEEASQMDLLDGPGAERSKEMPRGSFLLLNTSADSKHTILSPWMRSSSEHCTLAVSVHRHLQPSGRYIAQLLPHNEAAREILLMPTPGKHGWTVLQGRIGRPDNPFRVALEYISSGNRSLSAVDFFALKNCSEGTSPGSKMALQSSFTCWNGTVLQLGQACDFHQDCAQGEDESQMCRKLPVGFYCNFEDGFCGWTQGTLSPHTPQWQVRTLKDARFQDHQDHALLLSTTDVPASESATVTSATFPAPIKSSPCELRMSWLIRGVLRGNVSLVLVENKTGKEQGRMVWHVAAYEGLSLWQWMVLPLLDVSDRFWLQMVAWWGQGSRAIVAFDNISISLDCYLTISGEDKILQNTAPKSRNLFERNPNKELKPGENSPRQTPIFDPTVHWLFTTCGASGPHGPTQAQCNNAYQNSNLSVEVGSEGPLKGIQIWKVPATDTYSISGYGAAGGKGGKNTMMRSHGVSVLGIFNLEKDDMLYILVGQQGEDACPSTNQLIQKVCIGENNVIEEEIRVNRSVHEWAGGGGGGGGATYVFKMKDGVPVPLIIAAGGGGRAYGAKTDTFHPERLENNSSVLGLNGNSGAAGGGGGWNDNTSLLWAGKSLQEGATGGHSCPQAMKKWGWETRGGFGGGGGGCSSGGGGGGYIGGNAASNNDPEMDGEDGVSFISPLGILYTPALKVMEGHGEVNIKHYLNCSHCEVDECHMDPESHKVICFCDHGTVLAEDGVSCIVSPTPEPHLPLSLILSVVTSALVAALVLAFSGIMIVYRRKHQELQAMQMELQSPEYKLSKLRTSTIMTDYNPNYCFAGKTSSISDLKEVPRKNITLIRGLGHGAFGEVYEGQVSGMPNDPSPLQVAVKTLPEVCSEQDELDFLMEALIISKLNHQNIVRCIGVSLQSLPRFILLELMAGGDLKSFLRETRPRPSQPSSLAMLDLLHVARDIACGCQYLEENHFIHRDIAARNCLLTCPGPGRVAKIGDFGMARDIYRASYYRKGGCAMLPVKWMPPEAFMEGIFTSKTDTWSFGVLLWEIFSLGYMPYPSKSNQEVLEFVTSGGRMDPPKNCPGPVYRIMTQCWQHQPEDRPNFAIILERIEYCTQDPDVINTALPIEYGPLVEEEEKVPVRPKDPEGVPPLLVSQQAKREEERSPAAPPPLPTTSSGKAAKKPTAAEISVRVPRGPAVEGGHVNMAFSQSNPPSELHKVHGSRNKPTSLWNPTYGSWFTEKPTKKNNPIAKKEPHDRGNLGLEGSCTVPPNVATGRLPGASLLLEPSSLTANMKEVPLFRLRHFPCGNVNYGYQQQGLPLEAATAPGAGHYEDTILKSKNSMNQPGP
Experimental: as §4, §5, §6, §7

T1 sequence (Q9UM73 whole entry C1156Y, the tested form may be a part): as the sequence (Q9UM73 whole entry L1196M, the tested form may be a part) above, with C1156Y, M1196L counted along it

CN1CCN(c2ccc(C(=O)Nc3n[nH]c4cc(-c5ccc(O)cc5)c(Cc5cc(F)cc(F)c5)cc34)c(NC3CCOCC3)c2)CC1 [Example 3, N-[5-[(3,5-difluorophenyl)methyl]-6-(4-hydroxyphenyl)-1H-indazol-3-yl]-4-(4-methylpiperazin-1-yl)-2-(tetrahydropyran-4-ylamino)benzamide]
GI50 [1]: 34 nM | GI50 ([2]; averaged IC50 values of cell proliferation inhibition, class letters, read-out: IC50 BaF3 NPM-ALK L1196M cells): 1 to 50 nM | GI50 ([2]; cell line BaF3 NPM-ALK L1196M, read-out: IC50 of cellular proliferation, BaF3 NPM-ALK L1196M): 6 nM | % Inhibition BaF3 NPM-ALK L1196M cells ([2]; percentage of inhibition of cell proliferation at 200 nM): 83% | IC50 [3]: 34 nM | GI50 [4]: 18 nM | IC50 [5]: 46 nM

Reference: US10336707B2, “Heterocyclic derivatives modulating activity of certain protein kinases” (EUDENDRON S.R.L., priority 2014, dated 2019)
